The structures appear in SMILES notation. pIC50: −log10 of the molar value.

One test deals with AGS cells (KRAS^G12D). In words: Detection of cell proliferation in vitro by MTT/MTS method (cell activity experiment). As to conditions: AGS cells; MTT/MTS; 3 days of drug treatment; read-out: AGS IC50. Format: cell-based. Put shortly:
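KRAS G12D AGS cells seeded at 1000 per well, compound added 24 h later, 0.5% final DMSO. Viability read after 3 days of treatment by MTT (solubilised in DMSO) or MTS, 4 h, absorbance 490 nm. IC50 from dose–response curves versus DMSO control.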
(Formazan colour is commonly taken as a measure of viable cells.)
With `C#Cc1c(F)ccc2cc(O)cc(-c3ccc4c(N5C[C@H]6CC[C@@H](C5)[C@@H]6S(C)(=O)=O)nc(OC[C@@]56CCCN5C[C@H](F)C6)nc4c3F)c12` [Example 131, 5-ethynyl-6-fluoro-4-(8-fluoro-2-(((2R,7aS)-2-fluorotetrahydro-1H-pyrrolizin-7a(5H)-yl)methoxy)-4-((1R,5S, 8R)-8-(methylsulfonyl)-3-azabicyclo[3.2.1]octan-3-yl)quinazolin-7-yl)naphthalen-2-ol], the pIC50 (as a rule, −log10 of the IC50, conventionally taken in molar units) is less than 5.60.

For `CCC1CCCc2cc(O)cc(-c3ccc4c(N5C[C@H]6CC[C@@H](C5)N6)nc(OC[C@@]56CCCN5C[C@H](F)C6)nc4c3F)c21` (single isomer, unassigned) [Example 291], the pIC50 was 8.14.

Staying with this test, now noted: Homo sapiens, AGS, 72 h, AGS cells; MTT/MTS; 3 days of drug treatment; read-out: AGS IC50.
Take `C#Cc1c(F)ccc2cc(O)cc(-c3ncc4c(-c5cnn(C(=O)CO)c5)nc(OC[C@@]56CCCN5C[C@H](F)C6)nc4c3F)c12` [Example 87, 1-(4-(7-(8-ethynyl-7-fluoro-3-hydroxynaphthalen-1-yl)-8-fluoro-2-(((2R, 7aS)-2-fluorotetrahydro-1H-pyrrolizin-7a(5H)-yl)methoxy)pyrido[4,3-d]pyrimidin-4-yl)-1H-pyrazol-1-yl)-2-hydroxyethan-1-one]: the pIC50 is less than 5.00.

In the case of `CCC1COc2cc(O)cc(-c3ccc4c(N5C[C@H]6CC[C@@H](C5)N6)nc(OC[C@@]56CCCN5C[C@H](F)C6)nc4c3F)c21` (stereo partly drawn) [Example 292, 4-(4-((1R,5S)-3,8-diazabicyclo[3.2.1]octan-3-yl)-8-fluoro-2-(((2R,7aS)-2-fluorotetrahydro-1H-pyrrolizin-7a(5H)-yl)methoxy)quinazolin-7-yl)-3-ethyl-2,3-dihydrobenzofuran-6-ol], the pIC50 is 7.40. Consider `CCc1csc2cc(O)cc(-c3ncc4c(N5C[C@H]6CC[C@@H](C5)N6)nc(OC[C@@]56CCCN5C[C@H](F)C6)nc4c3F)c12` [Example 348, 4-(4-((1R,5S)-3,8-diazabicyclo[3.2.1]octan-3-yl)-8-fluoro-2-(((2R,7aS)-2-fluorotetrahydro-1H-pyrrolizin-7a(5H)-yl)methoxy)pyrido[4,3-d]pyrimidin-7-yl)-3-ethylbenzo[b]thiophen-6-ol], for which the pIC50 was 7.07.

Turning to `C#Cc1c(F)ccc2cc(O)cc(-c3c4c(c5c(N6C[C@H]7CC[C@@H](C6)N7)nc(OC[C@@]67CCCN6C[C@H](F)C7)nc5c3F)CCC4)c12` [Example 379, 4-(1-((1R,5S)-3,8-diazabicyclo[3.2.1]octan-3-yl)-5-fluoro-3-(((2R,7aS)-2-fluorotetrahydro-1H-pyrrolizin-7a(5H)-yl)methoxy)-8,9-dihydro-7H-cyclopenta[f]quinazolin-6-yl)-5-ethynyl-6-fluoronaphthalen-2-ol], the pIC50 was 7.05. Still for that read-out and setting: then `C#Cc1c(F)ccc2cc(O)cc(-c3ncc4c(N5CCC(NS(C)(=O)=O)C5)nc(OC[C@@]56CCCN5C[C@H](F)C6)nc4c3F)c12` (stereo partly drawn) [Example 59, N-(1-(7-(8-ethynyl-7-fluoro-3-hydroxynaphthalen-1-yl)-8-fluoro-2-(((2R, 7aS)-2-fluorotetrahydro-1H-pyrrolizin-7a(5H)-yl)methoxy)pyrido[4,3-d]pyrimidin-4-yl)pyrrolidin-3-yl) methanesulfonamide], with less than 5.60; and `Cc1nccc2cc(O)cc(-c3ncc4c(N5C[C@H]6CC[C@@H](C5)N6)nc(OC[C@@]56CCCN5C[C@H](F)C6)nc4c3F)c12` [Example 343, 8-(4-((1R,5S)-3,8-diazabicyclo[3.2.1]octan-3-yl)-8-fluoro-2-(((2R,7aS)-2-fluorotetrahydro-1H-pyrrolizin-7a(5H)-yl)methoxy)pyrido[4,3-d]pyrimidin-7-yl)-1-methylisoquinolin-6-ol], with 7.77; and `CCc1c(F)ccc2cc(O)cc(-c3ccc4c(N5C[C@H]6CC[C@@H](C5)N6)c(C(F)(F)F)c(OC[C@@]56CCCN5C[C@H](F)C6)nc4c3F)c12` [Example 186, 4-(4-((1R,5S)-3,8-diazabicyclo[3.2.1]octan-3-yl)-8-fluoro-2-(((2R,7aS)-2-fluorotetrahydro-1H-pyrrolizin-7a(5H)-yl)methoxy)-3-(trifluoromethyl)quinolin-7-yl)-5-ethyl-6-fluoronaphthalen-2-ol], with 5.85. Regarding `[O-][S+]1C2CCC1CN(c1nc(OC[C@@]34CCCN3C[C@H](F)C4)nc3c(F)c(-c4cc(O)cc5cccc(F)c45)ccc13)C2` (stereo partly drawn) [Example 168, (1R,5S,8R)-3-(8-fluoro-7-(8-fluoro-3-hydroxynaphthalen-1-yl)-2-(((2R,7aS)-2-fluorotetrahydro-1H-pyrrolizin-7a(5H)-yl)methoxy)quinazolin-4-yl)-8-thia-3-azabicyclo[3.2.1]octane 8-oxide], the pIC50 was less than 5.60.

As to `CC1CCCc2cc(O)cc(-c3c(Cl)cc4c(N5C[C@H]6CC[C@@H](C5)N6)nc(OC[C@@]56CCCN5C[C@H](F)C6)nc4c3F)c21` (stereo partly drawn) [Example 301, 4-(4-((1R,5S)-3,8-diazabicyclo[3.2.1]octan-3-yl)-6-chloro-8-fluoro-2-(((2R,7aS)-2-fluorotetrahydro-1H-pyrrolizin-7a(5H)-yl)methoxy)quinazolin-7-yl)-5-methyl-5,6,7,8-tetrahydronaphthalen-2-ol], the pIC50 was 7.55.

In the case of `C#Cc1c(F)ccc2cc(O)cc(-c3ncc4c(N5CC6CCC(C5)C6S(=O)(=O)C(F)(F)F)nc(OC[C@@]56CCCN5C[C@H](F)C6)nc4c3F)c12` (stereo partly drawn) [Example 67, 5-ethynyl-6-fluoro-4-(8-fluoro-2-(((2R,7aS)-2-fluorotetrahydro-1H-pyrrolizin-7a(5H)-yl)methoxy)-4-((1R,5S, 8R)-8-((trifluoromethyl)sulfonyl)-3-azabicyclo[3.2.1]octan-3-yl)pyrido[4,3-d]pyrimidin-7-yl)naphthalen-2-ol], the pIC50 is less than 5.00. For the compound `CCC1CCCc2cc(O)cc(-c3cc4nc(OC[C@@]56CCCN5C[C@H](F)C6)nc(N5C[C@H]6CC[C@@H](C5)N6)c4c4occc34)c21` (stereo partly drawn) [Example 388, 4-(9-((1R,5S)-3,8-diazabicyclo[3.2.1]octan-3-yl)-7-(((2R,7aS)-2-fluorotetrahydro-1H-pyrrolizin-7a(5H)-yl)methoxy)furo[2,3-f]quinazolin-4-yl)-5-ethyl-5,6,7,8-tetrahydronaphthalen-2-ol], the pIC50 is 6.31. Same read-out and setting: then `C#Cc1c(F)ccc2cc(O)cc(-c3ncc4c(N5C[C@H]6CC[C@@H](C5)N6)nc(OC[C@@]56CCCN5C[C@H](F)C6)nc4c3OC3CC3)c12` [Example 334, 4-(4-((1R,5S)-3,8-diazabicyclo[3.2.1]octan-3-yl)-8-cyclopropoxy-2-(((2R,7aS)-2-fluorotetrahydro-1H-pyrrolizin-7a(5H)-yl)methoxy)pyrido[4,3-d]pyrimidin-7-yl)-5-ethynyl-6-fluoronaphthalen-2-ol], with 6.90; and `CCC1CCCc2cc(O)cc(-c3ccc4c(NCC5(N(C)C)CCC5)nc(OC[C@@]56CCCN5C[C@H](F)C6)nc4c3F)c21` (stereo partly drawn) [Example 428, 4-(4-(((1-(dimethylamino)cyclobutyl)methyl)amino)-8-fluoro-2-(((2R,7aS)-2-fluorotetrahydro-1H-pyrrolizin-7a(5H)-yl)methoxy)quinazolin-7-yl)-5-ethyl-5,6,7,8-tetrahydronaphthalen-2-ol], with 7.15. Same read-out and setting: the same measure for `C#Cc1cccc2cc(O)cc(-c3ccc4c(N5C[C@H]6CC[C@@H](C5)O6)nc(OC[C@@]56CCCN5C[C@H](F)C6)nc4c3F)c12` [Example 157, 4-(4-((1R,5S)-8-oxa-3-azabicyclo[3.2.1]octan-3-yl)-8-fluoro-2-(((2R,7aS)-2-fluorotetrahydro-1H-pyrrolizin-7a(5H)-yl)methoxy)quinazolin-7-yl)-5-ethynylnaphthalen-2-ol]: 6.48; for `CC[C@@H]1CCc2cc(O)cc(-c3ncc4c(N5CC6CCC(C5)N6)nc(OC[C@@]56CCCN5C[C@H](F)C6)nc4c3F)c21` (single isomer, unassigned) [Example 221, (R)-7-(4-((1R,5S)-3,8-diazabicyclo[3.2.1]octan-3-yl)-8-fluoro-2-(((2R,7aS)-2-fluorotetrahydro-1H-pyrrolizin-7a(5H)-yl)methoxy)pyrido[4,3-d]pyrimidin-7-yl)-1-ethyl-2,3-dihydro-1H-inden-5-ol or (S)-7-(4-((1R,5S)-3,8-diazabicyclo[3.2.1]octan-3-yl)-8-fluoro-2-(((2R,7aS)-2-fluorotetrahydro-1H-pyrrolizin-7a(5H)-yl)methoxy)pyrido[4,3-d]pyrimidin-7-yl)-1-ethyl-2,3-dihydro-1H-inden-5-ol]: 6.06. The same measure, in the same setting: then `C#Cc1c(F)ccc2cc(O)cc(C3=C(F)c4nc(OC[C@@]56CCCN5C[C@H](F)C6)nc(N5C[C@H]6CC[C@@H](C5)N6)c4C4=NCCN43)c12` [Example 402, 4-(10-((1R,5S)-3,8-diazabicyclo[3.2.1]octan-3-yl)-6-fluoro-8-(((2R,7aS)-2-fluorotetrahydro-1H-pyrrolizin-7a(5H)-yl)methoxy)-2,3-dihydroimidazo[1′,2′:1,2]pyrido[4,3-d]pyrimidin-5-yl)-5-ethynyl-6-fluoronaphthalen-2-ol], with 7.25; and `C#Cc1c(F)ccc2cc(O)cc(-c3c(Cl)cc4c(N5C[C@H]6CC[C@@H](C5)N6)nc(OC[C@@]56CCCN5C[C@H](F)C6)nc4c3OCC(F)(F)F)c12` [Example 331, 4-(4-((1R,5S)-3,8-diazabicyclo[3.2.1]octan-3-yl)-6-chloro-2-(((2R,7aS)-2-fluorotetrahydro-1H-pyrrolizin-7a(5H)-yl)methoxy)-8-(2,2,2-trifluoroethoxy)quinazolin-7-yl)-5-ethynyl-6-fluoronaphthalen-2-ol], with 6.08; and `C#Cc1c(F)ccc2cc(O)cc(-c3ncc4c(N5CC6CCC(C5)C6O)nc(OC[C@@]56CCCN5C[C@H](F)C6)nc4c3F)c12` (stereo partly drawn) [Example 60, (1R,5S,8R)-3-(7-(8-ethynyl-7-fluoro-3-hydroxynaphthalen-1-yl)-8-fluoro-2-(((2R,7aS)-2-fluorotetrahydro-1H-pyrrolizin-7a(5H)-yl)methoxy)pyrido[4,3-d]pyrimidin-4-yl)-3-azabicyclo[3.2.1]octan-8-ol], with less than 5.60.

(Values after patent publication US20240300980A1, “HETEROCYCLIC COMPOUNDS AS KRAS INHIBITOR, AND PREPARATION THEREFOR AND USE THEREOF IN TREATMENT” (SHANGHAI KECHOW PHARMA, INC., priority 2021, published 2024).)
